Measurements reported in patent publication US20170035884A1, “AQUEOUS GELLING COMPOSITIONS OF SOLUBLE ACTIVE PHARMACEUTICAL PEPTIDES PROVIDING MODIFIED RELEASE” (Ipsen Pharma S.A.S., priority 2012, published 2017).
Where a name gives a salt, the structure may show the parent alone. Read-outs that look alike come from different tables or passages of the source.

Assay: Solubility testing of peptide 1 salts in gelling compositions (HPLC after filtration)
Assay type: physicochemical
Procedure: The solubility of the peptide 1 salts in the gelling compositions of Table 1 was evaluated using HPLC analysis after filtration.

Row | SMILES | solubility (38% glycerol gelling composition, in 38% glycerol, read-out: solubility) [mg/mL] | solubility (in 32% PEG 400) [mg/mL]
1 | CC(=O)NC(CCCNC(=N)N)C(=O)N[C@H]1CSSC[C@@H](C(N)=O)NC(=O)[C@H](Cc2c[nH]c3ccccc23)NC(=O)[C@H](CCCNC(=N)N)NC(=O)[C@@H](Cc2ccccc2)NC(=O)[C@H](Cc2cnc[nH]2)NC(=O)[C@@H](C)NC1=O (stereo partly drawn) [peptide 1 acetate salt, Ac-Arg-c(Cys-D-Ala-His-D-Phe-Arg-Trp-Cys)-NH2] | ≥ 100 | ≥ 100
2 | CC(=O)NC(CCCNC(=N)N)C(=O)N[C@H]1CSSC[C@@H](C(N)=O)NC(=O)[C@H](Cc2c[nH]c3ccccc23)NC(=O)[C@H](CCCNC(=N)N)NC(=O)[C@@H](Cc2ccccc2)NC(=O)[C@H](Cc2cnc[nH]2)NC(=O)[C@@H](C)NC1=O (stereo partly drawn) [peptide 1 heptanoate salt, Ac-Arg-c(Cys-D-Ala-His-D-Phe-Arg-Trp-Cys)-NH2] |  | 28.1
